From publication PMC10480161, “Identification of potent and selective N-myristoyltransferase inhibitors of Plasmodium vivax liver stage hypnozoites and schizonts” (Nature Communications, 2023)
Where “and” joins values, the source holds several entries; their conditions need not be identical. Equal entries are not always repeated.

What was measured:
[1] = biological target: PvNMT (Plasmodium vivax, UniProt A5K1A2); experiment: NMT activity assay (CPM detection of free CoA), PvNMT; conditions: for IC50: PvNMT IC50, mean of two or more determinations; for SI: enzyme selectivity, HsNMT IC50/PvNMT IC50
[2] = test system: P. vivax hypnozoites; experiment: P. vivax liver stage assay, hypnozoites; format: cell-based, Plasmodium vivax; conditions: for Hypnozoites per well: Isolate 2, replicate wells (Figure 6d); for Number of liverstage hypnozoites per well: 8 dpi; for IC50: Hepatocyte, 120 h, primary human hepatocytes, treatment day 5 to 8 post-infection, isolate 2
Method: Finally, we evaluated the NMT-binding compounds against non-developing P. vivax hypnozoites. […] (Fig. 6A). […] We, therefore, evaluated the impact of all tested compounds on P. vivax hypnozoites using these two isolates.
(§1) Plasmodium vivax liver stage assays were performed as described previously. Cryopreserved primary human hepatocytes (Cat No. F00995-P) and hepatocyte culture medium (HCM) (InVitroGroTM CP Medium) were obtained from Bioreclamation IVT, Inc., (Baltimore, MD, USA). Briefly, we seeded 384-well plates with primary hepatocytes from a single donor lot at a density of 25,000 cells per well. We then infected the hepatocytes with 14,000 freshly hand-dissected sporozoites per well. Cells were exposed to the compounds at indicated concentrations from day 5 post-infection. We used Pi4K inhibitor MMV390048, at 20 µM, as a positive control to eliminate P. vivax liver schizonts. We then proceeded to feed cultures every day, replacing the compounds until day 8 post-infection. Cells were fixed with 4% PFA, permeabilized with 1% Triton X-100, blocked with 2% BSA, and stained with DAPI and PvUIS4 antibodies to detect schizonts and hypnozoites forms by confocal microscopy. For antibody dilutions, PvUIS4 (kind gift from Dr. Noah Sather, Seattle Children’s Research Institute) was diluted 1:250 and the secondary antibody was anti-mouse AlexaFluor-594 (Cat # A-11005; RRID: AB_2534073) diluted 1:1000. DAPI was diluted 1:2000. The images were processed, analyzed and outlier cells were removed using IMARIS (Bitplane Inc.) image analysis software.

[3] = biological target: T1, HsNMT1 (Homo sapiens, UniProt P30419); experiment: NMT activity assay (CPM detection of free CoA), HsNMT
T1 sequence (P30419 1-496): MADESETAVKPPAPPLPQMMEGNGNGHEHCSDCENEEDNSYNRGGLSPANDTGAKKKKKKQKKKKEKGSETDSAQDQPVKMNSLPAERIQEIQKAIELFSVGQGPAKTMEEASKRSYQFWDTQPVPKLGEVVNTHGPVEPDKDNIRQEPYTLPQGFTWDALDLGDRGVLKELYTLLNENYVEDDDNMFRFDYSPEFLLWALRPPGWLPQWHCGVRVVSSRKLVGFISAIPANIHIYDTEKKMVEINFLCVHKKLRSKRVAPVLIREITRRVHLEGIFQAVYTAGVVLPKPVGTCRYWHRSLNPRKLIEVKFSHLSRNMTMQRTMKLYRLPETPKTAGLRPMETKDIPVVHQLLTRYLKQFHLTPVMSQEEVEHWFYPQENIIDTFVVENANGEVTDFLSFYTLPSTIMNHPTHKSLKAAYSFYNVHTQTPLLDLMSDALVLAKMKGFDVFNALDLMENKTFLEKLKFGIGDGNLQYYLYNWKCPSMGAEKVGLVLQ

[4] = test system: P. falciparum NF54; experiment: P. falciparum blood stage assay (SYBR Green); format: cell-based, Plasmodium falciparum; conditions: 72 h; for P. falciparum blood-stage development (parasite DNA level fluorescence): untreated = 129; for IC50: Plasmodium falciparum, NF54, ring-stage parasites, relative IC50
Method: To assess whether any of the PvNMTis developed here could qualify as TCP-1 candidates, we assessed the effect of each compound on blood-stage P. falciparum parasites, as there is currently no well-established in vitro platform for screening P. vivax blood-stage parasites. Synchronized P. falciparum NF54 ring-stage parasites were treated for 72 h with each compound at various concentrations, ranging from 0.625 µM to 10 µM, and parasite DNA replication was measured using a fluorescent DNA binding dye (SYBR Green).
Sorbitol-synchronized P. falciparum NF54 ring-stage parasites were cultured at a parasitemia of 0.5% and hematocrit of 1.5% in a 96-well microtiter plate. Parasites were treated with each NMT inhibitor compound at 0.625, 1.25, 2.5, 5, or 10 µM for 72 h. Direct lysis of the blood cells to release the parasite DNA was performed by adding 100 μl of LBS buffer containing SYBR green I DNA binding dye to each well. […] ICEstimator regression analysis (http://www.antimalarial-icestimator.net/) was used to obtain relative IC50 values for each compound.

[5] = test system: P. vivax schizonts; experiment: P. vivax liver stage assay, schizonts; format: cell-based, Plasmodium vivax; conditions: for Number of liverstage Schizonts per well: 20 µM, 8 dpi; for IC50: Plasmodium vivax, Hepatocyte, 120 h, primary human hepatocytes, treatment day 5 to 8 post-infection, isolates 2 and 3
Method: We next evaluated the candidate compounds against liver-stage P. vivax (Fig. 5). P. vivax sporozoites were obtained from three independent patient isolates and cultured in primary human hepatocytes from a single donor lot using a 384-well microculture system as described previously. Cells were infected and treated with NMTis at 20 µM beginning day 5 post-infection until day 8 when the infection rates were quantified by fluorescent microscopy.
Accordingly, we applied dose–response curves of all the tested NMTs on parasite isolates 2 and 3 over concentrations up to 20 µM (Fig. 5c, d, Source Data file). We observed similar kinetics for all inhibitors, with a gradual decrease in parasite load upon increasing the drug concentration. […] Nuclei were counted in each well using DAPI staining as a measure of toxicity (Supplementary Fig. 86, Supplementary Source data). We used the phosphatidylinositol 4-kinase inhibitor (PI4Ki), MMV390048, as a positive control for eliminating schizonts[37],[38].
as §1

[6] = 20 µM, isolate 1, technical replicates (Fig. 6C)
[7] = 20 µM, isolate 2, technical replicates (Fig. 6C)
[8] = 20 µM, isolate 3, technical replicates (Fig. 6C)
[9] = isolate 1, technical replicates (Fig. 5b)
[10] = isolate 2, technical replicates (Fig. 5b)
[11] = isolate 3, technical replicates (Fig. 5b)

Sequence of PvNMT (A5K1A2 entry or part of it): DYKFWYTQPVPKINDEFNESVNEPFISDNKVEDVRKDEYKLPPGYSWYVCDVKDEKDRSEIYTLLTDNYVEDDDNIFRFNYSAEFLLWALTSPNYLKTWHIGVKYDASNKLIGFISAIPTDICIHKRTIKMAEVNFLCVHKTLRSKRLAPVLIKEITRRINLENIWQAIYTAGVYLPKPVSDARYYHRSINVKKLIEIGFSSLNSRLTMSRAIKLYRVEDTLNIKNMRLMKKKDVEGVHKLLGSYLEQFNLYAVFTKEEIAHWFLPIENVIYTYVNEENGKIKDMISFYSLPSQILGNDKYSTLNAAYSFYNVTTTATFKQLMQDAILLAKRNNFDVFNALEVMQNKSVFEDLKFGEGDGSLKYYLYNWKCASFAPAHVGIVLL

SMILES	IC50 [1]	Hypnozoites per well ([2]; 1.25 uM)	Hypnozoites per well ([2]; 2.5 uM)	Hypnozoites per well ([2]; 5 uM)	Hypnozoites per well ([2]; 10 uM)	Number of liverstage hypnozoites per well [2, 6]	Number of liverstage hypnozoites per well [2, 7]	Number of liverstage hypnozoites per well [2, 8] [per well]	Hypnozoites per well ([2]; 20 uM)	IC50 ([2]; Plasmodium vivax) [µM]	P. falciparum blood-stage development (parasite DNA level fluorescence) ([4]; 0.625 uM)	P. falciparum blood-stage development (parasite DNA level fluorescence) ([4]; 1.25 uM)	P. falciparum blood-stage development (parasite DNA level fluorescence) ([4]; 2.5 uM)	P. falciparum blood-stage development (parasite DNA level fluorescence) ([4]; 5 uM)	P. falciparum blood-stage development (parasite DNA level fluorescence) ([4]; 10 uM)	IC50 [4] [µM]	Number of liverstage Schizonts per well [5, 9]	Number of liverstage Schizonts per well [5, 10]	Number of liverstage Schizonts per well [5, 11]	Schizonts per well ([5]; Isolate 2, 1.25 uM)	also measured
Cc1nn(C)c(C)c1CCOc1cccnc1-c1ccnc(N2CCNCC2)c1 [Compound 12a]	0.0368 µM	12 and 10 and 8	8 and 7 and 13	6 and 8 and 7	1 and 3 and 0	8 per well (2×) and 0 per well	0 per well (2×) and 3 per well	0	0 (2×) and 3	5.7	128.4	125.3	116.9	107.7	96.27	0.81	5 per well and 3 per well and 1 per well	1 per well and 0 per well and 3 per well	2 per well and 6 per well	12 per well and 16 per well and 11 per well	SI [1]: 146.7; hypnozoites (fold change to DMSO) mean diff ([2]; isolate 1, 20 µM): 0.754; hypnozoites (fold change to DMSO) mean diff ([2]; isolate 2, 20 µM): 0.897; IC50 [3]: 5.4 µM; Schizonts per well ([5]; Isolate 2, 5 uM): 8 per well and 10 per well and 7 per well; Schizonts per well ([5]; Isolate 3, 1.25 uM): 12 per well and 15 per well; Schizonts per well ([5]; Isolate 3, 2.5 uM): 12 per well and 9 per well; Schizonts per well ([5]; Isolate 3, 5 uM): 7 per well and 5 per well; IC50 [5]: 3 to 3.8 µM; schizonts (fold change to DMSO) mean diff ([5]; isolate 1, 20 µM): 0.850; schizonts (fold change to DMSO) mean diff ([5]; isolate 2, 20 µM): 0.9245; schizonts (fold change to DMSO) mean diff ([5]; isolate 3, 20 µM): 0.7273
Cc1nn(C)c(C)c1CCOc1cccnc1-c1cccc(N2CCNCC2)c1 [Compound 12b]	0.0802 µM and 0.0801 µM	3 and 4 (2×)	3 and 4 (2×)	2 (2×) and 3	1 (2×) and 0	5 per well and 9 per well and 0 per well	1 per well and 0 per well (2×)	0	1 and 0 (2×)	1.7	118	125.4	119.5	108.7	105.8	0.47	1 per well and 2 per well and 0 per well	2 per well (2×) and 4 per well	1 per well and 2 per well	12 per well and 11 per well and 9 per well	SI [1]: > 145 and > 150 and > 250; IC50 [3]: 20.8 µM; Schizonts per well ([5]; Isolate 2, 2.5 uM): 11 per well and 7 per well and 10 per well; Schizonts per well ([5]; Isolate 2, 5 uM): 8 per well and 7 per well and 5 per well; Schizonts per well ([5]; Isolate 2, 10 uM): 2 per well and 4 per well; Schizonts per well ([5]; Isolate 3, 1.25 uM): 11 per well and 15 per well; Schizonts per well ([5]; Isolate 3, 2.5 uM): 9 per well and 11 per well; Schizonts per well ([5]; Isolate 3, 5 uM): 8 per well and 10 per well; Schizonts per well ([5]; Isolate 3, 10 uM): 4 per well and 3 per well; Schizonts per well ([5]; Isolate 3, 20 uM (Fig. 5c-d)): 1 per well and 2 per well; IC50 [5]: 2.3 to 4.6 µM
c1cncc(CCOc2ccc3ccccc3c2-c2ccnc(N3CCNCC3)c2)c1 [Compound 30c]	0.248 µM	8 and 15 and 7	5 and 6 and 12	0 and 5 and 13	5 and 0 and 4	0 per well and 1 per well and 4 per well	4 per well (2×) and 1 per well	0	4 (2×) and 1	3.8	126.9	124	114.3	101.4	93.99	0.68	0 per well (2×) and 6 per well	3 per well and 4 per well and 6 per well	1 per well and 3 per well	12 per well and 14 per well and 13 per well	inhibition at 20 µM ([2]; Plasmodium vivax, 20 µM): > 75%; hypnozoites (fold change to DMSO) mean diff ([2]; isolate 1, 20 µM): 0.939; hypnozoites (fold change to DMSO) mean diff ([2]; isolate 2, 20 µM): 0.690; Schizonts per well ([5]; Isolate 2, 2.5 uM): 9 per well and 14 per well and 11 per well; Schizonts per well ([5]; Isolate 2, 5 uM): 7 per well and 10 per well and 9 per well; Schizonts per well ([5]; Isolate 2, 10 uM): 4 per well and 5 per well and 6 per well; Schizonts per well ([5]; Isolate 2, 20 uM (Fig. 5c-d)): 3 per well and 4 per well and 6 per well; Schizonts per well ([5]; Isolate 3, 1.25 uM): 13 per well and 10 per well; Schizonts per well ([5]; Isolate 3, 2.5 uM): 12 per well and 9 per well; Schizonts per well ([5]; Isolate 3, 5 uM): 7 per well and 10 per well; IC50 [5]: 2.7 to 4.9 µM; schizonts (fold change to DMSO) mean diff ([5]; isolate 1, 20 µM): 0.900; schizonts (fold change to DMSO) mean diff ([5]; isolate 2, 20 µM): 0.7547; schizonts (fold change to DMSO) mean diff ([5]; isolate 3, 20 µM): 0.8636
